Measurements published in publication PMC12030062, “From In Vitro Cytotoxicity to In Vivo Zebrafish Assays: A Study on 3,3-Dichloro β-, γ- and δ-Lactams and Their Biological Activity Profiles” (Pharmaceuticals, 2025).
In brackets after ≈: the same amount, converted by molar mass. Like-named read-outs stand apart in the source and are kept apart here.

Tests used:
[1] = test system: A431 cell line (squamous cell carcinoma); test: Cell viability, MTT assay, A431; format: cell-based; settings: for IC50: Homo sapiens; for SI250, pseudo-selectivity index (MTT): 250 µg/mL, 24 h, A431 vs 3T3, MTT; for SI (MTT), selectivity index: SI = IC50 (3T3)/IC50 (A431); for selective cytotoxicity, A431 in comparison with 3T3 cells: lower IC50 for A431 than 3T3
Description: (§1) Two different endpoints, 3-(4,5-dimethyl-2-thiazolyl)-2,5-diphenyltetrazolium bromide (MTT) and neutral red uptake (NRU), were used to assess differences in cell-induced cytotoxicity. […] In addition, NRU evaluates the interaction of these drugs with the plasmatic membrane. Cell responses were determined from the MTT [16] and NRU [17] assays, using the two proposed cell lines. Cytotoxicity assays were performed at concentrations equal to 80 and 250 µg/mL. The IC50 value, referring to the half-maximal inhibitory concentration, was determined as a key parameter in cytotoxicity studies (Table 1). It plays a crucial role in evaluating cell viability and assessing cellular responses to various drugs or toxins. For cases where IC50 values were below 80 µg/mL, additional studies at lower concentrations were conducted to accurately determine these values. […] The selectivity index (SI), used as a measurement of action against the tumor cell line in comparison with a normal cell line, was also included.
(§2) • In Vitro Assay Using Human Erythrocytes • - Acquisition and Extraction of the Erythrocytes Human blood samples were obtained from the Banc de Sang i Teixits de Barcelona (Spain) from the Catalan Department of Health. Blood was deposited in tubes with the anticoagulant EDTA-K3. Blood samples were centrifuged at 3000 rpm and 4 °C for 10 min (Megafuge 2.0 R. Heraeus Instruments, Hanau, Germany) to induce sedimentation. Plasma was extracted with a Pasteur pipette. Next, the residual pellet was washed with PBS at pH 7.4. This procedure was repeated three times to remove residual leukocytes and platelets and to concentrate the erythrocytes. Following the last wash, the erythrocyte suspension was diluted (1:1) in PBS at pH 7.4 to obtain a suitable erythrocyte suspension (cell density of 8 × 10^9 cell/mL). • - Hemolysis Assay The hemolysis assay determined the capability of different compounds to induce the hemolysis of the erythrocyte membrane. Stock solutions of each compound at 1 mg/mL in PBS at pH 7.4 were prepared. Different volumes (10–80 μL) were placed in polystyrene tubes, and an aliquot of 25 µL of the erythrocyte suspensions was added to each tube. The final volume was 1 mL. The tubes were incubated at room temperature under rotatory conditions. Then, the tubes were centrifuged at 10,000 rpm for 5 min. The supernatants’ absorbance at 540 nm (Shimadzu UV-160A, Shimadzu, Duisburg, Germany) was compared with that of the positive (erythrocytes hemolyzed with distilled water) and negative (erythrocyte suspension in PBS at pH 7.4) controls. The degree of hemolysis was determined using the following equation: Hemolysis (%) = 100 × (Abs − Abs0)/(Abs100 − Abs0) where Abs, Abs0, and Abs100 are the absorbance of the test samples, of the suspension treated with isotonic phosphate–buffered saline (PBS), and of the suspension of complete hemolysis treated with distilled water, respectively. • In Vitro Essay Using Cell Cultures The murine Swiss albino fibroblasts (3T3) and the squamous cell carcinoma (A431) cell lines were obtained from Celltec UB. Cells were grown in DMEM medium (4.5 g/L glucose) supplemented with 10% (v/v) FBS, 2 mM L-glutamine, 100 U/mL penicillin, and 100 µg/mL streptomycin at 37 °C with 5% CO2. Cells were routinely cultured in 75 cm^2 culture flasks and were trypsinized using trypsin–EDTA when the cells reached approximately 80% confluence. The trypan blue assay, which allows for the direct identification and enumeration of the live (unstained) and dead (blue) cells in the cell population, was used to evaluate the viability of the cells in the cell suspension obtained. • - Cell Viability Assays Cell lines of 3T3 (1 × 10^5 cells/mL) and A431 (5 × 10^4 cells/mL) were grown at defined densities in the 60 central wells of a 96-well plate. The cells were incubated for 24 h in 5% CO2 at 37 °C. […]

[2] = Hemolysis assay with human erythrocytes; format: cell-based; settings: human, washed human erythrocyte suspension, pH 7.4, read-out: degree of hemolysis
Description: (§3) In this context, non-hemolytic compounds are essential, as they enhance the safety and efficacy of lactam-based drugs by reducing adverse effects while maintaining their antitumor activity. In accordance with EU regulations (ISO 10993-4), the assessment of the biological compatibility of new compounds that may come into contact with the blood necessitates in vitro hemocompatibility evaluations. In this study, the extent of hemolysis induced by the different compounds was assessed by incubating them with an erythrocyte suspension. The hemolytic response of compounds 1–10 was evaluated at two concentrations (10 and 80 µg/mL), the results of which are presented in Figure 3.
as §2, with “°C. Then, the spent medium was removed, and the cells were incubated for 24 h, with their corresponding compound solutions (1 mg/mL) previously diluted in a minimum amount of DMF (dimethylformamide) and then in DMEM medium supplemented with 5% FBS (100 µL) at the required concentration range (80 or 250 µg/mL).” for “°C.”

human erythrocytes = test: Hemolysis assay with human erythrocytes; format: cell-based; settings: from 10 to 80 µg/mL
Description: as §3
as §2, with “°C. Then, the spent medium was removed, and the cells were incubated for 24 h, with their corresponding compound solutions (1 mg/mL) previously diluted in a minimum amount of DMF (dimethylformamide) and then in DMEM medium supplemented with 5% FBS (100 µL) at the required concentration range (80 or 250 µg/mL).” for “°C.”

[3] = test system: murine Swiss albino fibroblast (3T3) cell line; test: Cell viability, NRU assay, 3T3; format: cell-based; settings: Mus musculus, 24 h incubation, NRU endpoint
Description: as §1, §2

[4] = test system: squamous carcinoma cells (A431) in comparison with the fibroblast (3T3) cell line; set-up: method as in PMID 38731527; settings: cited from earlier work
[5] = test system: murine Swiss albino fibroblast (3T3) cell line; test: Cell viability, MTT assay, 3T3; format: cell-based; settings: Mus musculus, 24 h, 24 h incubation, MTT endpoint
Description: as §1, §2

[6] = test system: A431 cell line (squamous cell carcinoma); test: Cell viability, NRU assay, A431; format: cell-based, human; settings: for SI250, pseudo-selectivity index (NRU): 250 µg/mL, 24 h, A431 vs 3T3, NRU; for IC50: Homo sapiens, A-431, 24 h, 24 h incubation, NRU endpoint, A431
Description: as §1, §2

Zebrafish = settings: cited from earlier work
[7] = A-431, 24 h, 24 h incubation, MTT endpoint, A431, read-out: IC50 (MTT) A431
[8] = A-431, A431 and 3T3, MTT and NRU, summarised in text, read-out: IC50 values

CC(C)(C)N1CC(CCl)C(Cl)(Cl)C1=O (stereo not shown) [Compound 2]
IC50 [1, 7]: > 250 µg/mL
hemolysis at 10 µg/mL [2]: 0.02%
change of hemolytic response as concentration increased (human erythrocytes): three-
IC50 [3]: > 250 µg/mL
IC50 (lowest values among five products) [4]: 100 to 250 µg/mL
IC50 [5]: > 250 µg/mL
SI250, pseudo-selectivity index (NRU) [6]: highest SI250 values
IC50 [6]: 232 ± 4.23 µg/mL (≈ 896 µM)
SI (NRU), selectivity index ([6]; SI = IC50 (3T3)/IC50 (A431), NRU): >1.08

CC(C)(C)N1C(=O)[C@@H](Cl)[C@@H]2[C@H](Cl)CCC[C@@H]21 [Compound 3]
IC50 [1, 7]: 250 ± 2.11 µg/mL (≈ 946 µM)
hemolysis at 10 µg/mL [2]: 0.1%
change of hemolytic response as concentration increased (human erythrocytes): doubled
IC50 [3]: > 250 µg/mL
IC50 [5]: 183 ± 3.11 µg/mL (≈ 694 µM)
SI250, pseudo-selectivity index (NRU) [6]: highest SI250 values
IC50 [6]: > 250 µg/mL

CC1CN(C(C)(C)C)C(=O)C1(Cl)Cl (stereo not shown) [Compound 4]
IC50 [1, 7]: > 250 µg/mL
change of hemolytic response as concentration increased (human erythrocytes): remained stable
IC50 [3]: > 250 µg/mL
IC50 [5]: > 250 µg/mL
IC50 [6]: > 250 µg/mL

C=C(Br)CN1CC(C)C(Cl)(Cl)C1=O (stereo not shown) [Compound 5]
IC50 [1, 7]: 250 ± 1.32 µg/mL (≈ 871 µM)
IC50 [1, 8]: > 250 µg/mL
IC50 [3]: 250 µg/mL (≈ 871 µM)
IC50 [5]: > 250 µg/mL
IC50 [6]: > 250 µg/mL

CC1CN(C2CCC(=O)CC2)C(=O)C1(Cl)Cl (stereo not shown) [Compound 6]
IC50 [1, 7]: > 250 µg/mL
change of hemolytic response as concentration increased (human erythrocytes): remained stable
IC50 [3]: > 250 µg/mL
IC50 [5]: > 250 µg/mL
SI250, pseudo-selectivity index (NRU) [6]: highest SI250 values
IC50 [6]: > 250 µg/mL

CC(C)(C)N1CC(C)(C)C(Cl)(Cl)C1=O [Compound 7]
SI250, pseudo-selectivity index (MTT) [1]: above 1.5
IC50 [1, 7]: 230 ± 2.54 µg/mL (≈ 967 µM)
SI (MTT), selectivity index [1]: >1.08
selective cytotoxicity, A431 in comparison with 3T3 cells [1]: some selective cytotoxicity
change of hemolytic response as concentration increased (human erythrocytes): remained stable
IC50 [3]: > 250 µg/mL
IC50 [5]: > 250 µg/mL
IC50 [6]: > 250 µg/mL

CC(C)(C)N1C(=O)[C@@H](Cl)[C@@H]2CCCC[C@@H]21 [Compound 8]
IC50 [1, 7]: 250 ± 1.78 µg/mL (≈ 1090 µM)
IC50 [1, 8]: > 250 µg/mL
SI (MTT), selectivity index [1]: >1.0
hemolysis at 10 µg/mL [2]: 0.1%
change of hemolytic response as concentration increased (human erythrocytes): doubled
IC50 [3]: > 250 µg/mL
IC50 [5]: > 250 µg/mL
IC50 [6]: > 250 µg/mL

CC1CCN(C(C)(C)C)C(=O)C1(Cl)Cl (stereo not shown) [Compound 9]
SI250, pseudo-selectivity index (MTT) [1]: above 1.5
IC50 [1, 7]: 242.9 ± 1.78 µg/mL (≈ 1020 µM)
selective cytotoxicity, A431 in comparison with 3T3 cells [1]: some selective cytotoxicity
hemolysis at 10 µg/mL [2]: 0.1%
hemolysis at 80 µg/mL ([2]; 80 µg/mL): ~0.7%
change of hemolytic response as concentration increased (human erythrocytes): fivefold
IC50 [3]: > 250 µg/mL
IC50 [5]: > 250 µg/mL
IC50 [6]: > 250 µg/mL

O=C1N(Cc2ccccc2)[C@H]2CCC[C@H](C2)C1(Cl)Cl [Compound 10]
IC50 [1, 7]: 238.3 ± 1.56 µg/mL (≈ 799 µM)
selective cytotoxicity, A431 in comparison with 3T3 cells [1]: some selective cytotoxicity
hemolysis at 10 µg/mL [2]: 0.02%
change of hemolytic response as concentration increased (human erythrocytes): remained stable
IC50 [3]: > 250 µg/mL
IC50 [5]: > 250 µg/mL
SI250, pseudo-selectivity index (NRU) [6]: highest SI250 values
IC50 [6]: > 250 µg/mL

COc1cccc2c1C(=O)c1c(O)c3c(c(O)c1C2=O)C[C@@](O)(C(=O)CO)C[C@@H]3O[C@H]1C[C@H](N)[C@H](O)[C@H](C)O1 [doxorubicin]
acute toxicity (Zebrafish; Zebrafish embryos): 5.6 µg/mL

CC(=O)O[C@H]1C(=O)[C@@]2(C)[C@H]([C@H](OC(=O)c3ccccc3)[C@]3(O)C[C@H](OC(=O)[C@H](O)[C@@H](NC(=O)c4ccccc4)c4ccccc4)C(C)=C1C3(C)C)[C@]1(OC(C)=O)CO[C@@H]1C[C@@H]2O [taxol]
acute toxicity (Zebrafish; Zebrafish): 1.05 µg/mL
